Data set [1] concerns Mus musculus. Put plainly: Analgesic activity in sc dosed white mouse by hot plate method. In kind it is functional.
For data set [2], the system named is Rhesus monkey. Put plainly: Narcotic antagonist activity in morphine-dependent monkey. In kind it is functional, organism-based. As to conditions: Macaca mulatta.
The subject of data set [3] is Rhesus monkey. As to the kind of experiment: Precipitation of abstinence syndrome of long duration in morphine-dependent monkey assessed as movement within cage. In kind it is ADME, organism-based, Macaca mulatta. As to conditions: in vivo.
In data set [4] the test system is Rhesus monkey. As to the kind of experiment: Precipitation of abstinence syndrome of long duration in morphine-dependent monkey assessed as irritability. In kind it is ADME, organism-based, Macaca mulatta. As to conditions: in vivo.
For data set [5], the system named is Rhesus monkey. As to the kind of experiment: Precipitation of abstinence syndrome of long duration in morphine-dependent monkey assessed as abdominal cramps. As to conditions: in vivo. In kind it is ADME, organism-based, Macaca mulatta, Abdomen.
In data set [6] the test system is Rhesus monkey. Put plainly: Precipitation of abstinence syndrome of long duration in morphine-dependent monkey assessed as hyperexcitability. As to conditions: in vivo. In kind it is ADME, organism-based, Macaca mulatta.

The ED50 is the dose that gives a 50% effect, or the effect in half of the subjects.

Active and inactive are the calls of the source. The calls are words filed in the database; no cut-off is given here.

Regarding `CCOC(=O)C1(c2ccccc2)CCN(C)CC1` [MEPERIDINE], in data set [1], the ED50 turned out to be 4.5 mg/kg.
Take `CN1CC[C@@H]2CC1Cc1ccc(O)cc12`: the result in data set [2] was Active.
Take `C[C@H]1C2Cc3ccc(O)cc3[C@@H]1CCN2C`: the Activity result is recorded as “Non-toxic” in data set [3], “Toxic” in data set [4], “Toxic” in data set [5] and “Non-toxic” in data set [6]. This molecule also returned an ED50 in data set [1] of 4.3 mg/kg.
For the molecule `CN1CC[C@]23c4c5ccc(O)c4O[C@H]2[C@@H](O)C=C[C@H]3[C@H]1C5` [MORPHINE], in data set [1], the 50% effective dose (ED50) was found to be 1.2 mg/kg.
As to `C[C@@H]1C2Cc3ccc(O)cc3[C@@H]1CCN2C`, the Activity result is “Non-toxic” in data set [3], “Toxic” in data set [4], “Toxic” in data set [5] and “Non-toxic” in data set [6]. For the same molecule, the outcome in data set [2] was Active. Also, the ED50 in data set [1] worked out at 1.1 mg/kg.

These data come from ChEMBL document CHEMBL3272348, “Synthesis and pharmacology of 2,9alpha-dimethyl-2'-hydroxy-6,7-benzomorphan” (J Med Chem, 1976).
